Measured values from patent US10351594B2, “Process for preparing compounds having triple activities of thrombolysis, antithrombosis, and radical scavenging” (Shanghai Lumosa Therapeutics Co., Ltd., priority 2013, dated 2019).
Read-outs that look alike come from different tables or passages of the source.

Tested on: stroke rats
[1] = 1 μmol/kg 5Ak after 4 hours from stroke onset, 1st day
[2] = 1 μmol/kg 5Ak after 4 hours from stroke onset, 2nd day
[3] = 1 μmol/kg 5Ak after 4 hours from stroke onset, 3rd day
[4] = 1 μmol/kg 5Ak after 4 hours from stroke onset, 4th day
[5] = 1 μmol/kg 5Ak after 4 hours from stroke onset, 5th day
[6] = 1 μmol/kg 5Ak after 4 hours from stroke onset, 6th day
[7] = 1 μmol/kg 5Ak after 6 hours from stroke onset, 1st day
[8] = 1 μmol/kg 5Ak after 6 hours from stroke onset, 2nd day
[9] = 1 μmol/kg 5Ak after 6 hours from stroke onset, 3rd day
[10] = 1 μmol/kg 5Ak after 6 hours from stroke onset, 4th day
[11] = 1 μmol/kg 5Ak after 6 hours from stroke onset, 5th day
[12] = 1 μmol/kg 5Ak after 6 hours from stroke onset, 6th day
[13] = 1 μmol/kg 5Ak after 24 hours from stroke onset, 1st day
[14] = 1 μmol/kg 5Ak after 24 hours from stroke onset, 2nd day
[15] = 1 μmol/kg 5Ak after 24 hours from stroke onset, 3rd day
[16] = 1 μmol/kg 5Ak after 24 hours from stroke onset, 4th day
[17] = 1 μmol/kg 5Ak after 24 hours from stroke onset, 5th day
[18] = 1 μmol/kg 5Ak after 24 hours from stroke onset, 6th day
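Note: male SD rats with thrombus-induced cerebral embolism via internal carotid artery, scored daily by Zealonga neurological deficit scale (0 no deficit to 5 death), lower score better.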

Experimental: The therapeutic effect was evaluated by neurological functional scores. The lower the score was, the better the therapeutic effect was. A 10% chloral hydrate solution was injected intraperitoneally into male SD rats at a dosage of 400 mg/kg body weight for anesthesia. A longitudinal incision was made at the center of the neck, and the right common carotid artery trunk was separated (about 3 cm in length). External carotid artery branches were each separated and ligated at the hyoid level, and the internal carotid artery was separated from the swollen part of the neck. The incision of the internal carotid artery and the proximal end of the common carotid artery were clipped respectively with noninvasive arterial clips, and the distal end of the external carotid artery was ligated. A catheter containing 0.5 mL thrombus suspension in normal saline was inserted in the external carotid artery trunk. When the clip on the internal carotid artery was released, the 0.5 mL thrombus suspension in normal saline in the catheter slowly flew from the external carotid artery to its proximal end, and then was injected into the arteries in brain through the internal carotid artery. Subsequently, the proximal end of the internal carotid artery was ligated, the arterial clips on the internal carotid artery and the common carotid artery were released, and blood flow was restored. After the wound was stitched up, 20,000 IU penicillin was intramuscularly injected for prevention from infection. […] Self-comparison was performed each day, and the neurological deficit degree was evaluated by the Zealonga method. A score of 0 indicated no sign of loss in neural function, 1 indicated the front limbs on the undamaged side could not stretch out, 2 indicated walking toward the undamaged side, 3 indicated tail-chasing walking in circles toward the undamaged side, 4 indicated involuntary walking with disturbance of consciousness, and 5 indicated death.

C[C@H](NC(=O)[C@@H]1CCCN1)C(=O)N[C@@H](CCCCN)C(=O)NCCCC[C@H](NC(=O)[C@@H]1Cc2cc(O)c(O)cc2C(C)(C)N1)C(=O)O [Compound 5Ak, 3S-6,7-dihydroxy-1,1-dimethyl-1,2,3,4-tetrahydro-isoquinoline-3-acyl-Lys(Pro-Ala-Lys)]
5: Daily neural function scores, number of rats under 1 score [1] | Daily neural function scores, number of rats under 0 score [2]
4: Daily neural function scores, number of rats under 1 score [2] | Daily neural function scores, number of rats under 1 score [5] | Daily neural function scores, number of rats under 1 score [7] | Daily neural function scores, number of rats under 2 scores [7] | Daily neural function scores, number of rats under 0 score [10] | Daily neural function scores, number of rats under 1 score [10] | Daily neural function scores, number of rats under 1 score [13] | Daily neural function scores, number of rats under 0 score [17] | Daily neural function scores, number of rats under 1 score [18]
definite therapeutic effect: therapeutic effect, result in words (1 μmol/kg 5Ak after 4 hours from stroke onset) | therapeutic effect, result in words (1 μmol/kg 5Ak after 6 hours from stroke onset) | therapeutic effect, result in words (1 μmol/kg 5Ak after 24 hours from stroke onset)
3: Daily neural function scores, number of rats under 0 score [1] | Daily neural function scores, number of rats under 0 score [3] | Daily neural function scores, number of rats under 1 score [12] | Daily neural function scores, number of rats under 1 score [14] | Daily neural function scores, number of rats under 2 scores [14] | Daily neural function scores, number of rats under 0 score [15] | Daily neural function scores, number of rats under 2 scores [15] | Daily neural function scores, number of rats under 1 score [16] | Daily neural function scores, number of rats under 2 scores [16] | Daily neural function scores, number of rats under 1 score [17] | Daily neural function scores, number of rats under 0 score [18]
8: Daily neural function scores, number of rats under 0 score [4] | Daily neural function scores, number of rats under 0 score [6]
one: rats that died during successive 6-day treatment (1 μmol/kg 5Ak once per day after 6 hours from stroke onset, n=10)
0: Daily neural function scores, number of rats under 4 scores [1] | Daily neural function scores, number of rats under 5 scores [1] | Daily neural function scores, number of rats under 3 scores [2] | Daily neural function scores, number of rats under 4 scores [2] | Daily neural function scores, number of rats under 5 scores [2] | Daily neural function scores, number of rats under 3 scores [3] | Daily neural function scores, number of rats under 4 scores [3] | Daily neural function scores, number of rats under 5 scores [3] | Daily neural function scores, number of rats under 3 scores [4] | Daily neural function scores, number of rats under 4 scores [4] | Daily neural function scores, number of rats under 5 scores [4] | Daily neural function scores, number of rats under 2 scores [5] | Daily neural function scores, number of rats under 3 scores [5] | Daily neural function scores, number of rats under 4 scores [5] | Daily neural function scores, number of rats under 5 scores [5] | Daily neural function scores, number of rats under 2 scores [6] | Daily neural function scores, number of rats under 3 scores [6] | Daily neural function scores, number of rats under 4 scores [6] | Daily neural function scores, number of rats under 5 scores [6] | Daily neural function scores, number of rats under 0 score [7] | Daily neural function scores, number of rats under 4 scores [7] | Daily neural function scores, number of rats under 5 scores [7] | Daily neural function scores, number of rats under 0 score [8] | Daily neural function scores, number of rats under 4 scores [8] | Daily neural function scores, number of rats under 5 scores [8] | Daily neural function scores, number of rats under 4 scores [9] | Daily neural function scores, number of rats under 5 scores [9] | Daily neural function scores, number of rats under 3 scores [10] | Daily neural function scores, number of rats under 4 scores [10] | Daily neural function scores, number of rats under 2 scores [11] | Daily neural function scores, number of rats under 3 scores [11] | Daily neural function scores, number of rats under 4 scores [11] | Daily neural function scores, number of rats under 5 scores [11] | Daily neural function scores, number of rats under 2 scores [12] | Daily neural function scores, number of rats under 3 scores [12] | Daily neural function scores, number of rats under 4 scores [12] | Daily neural function scores, number of rats under 5 scores [12] | Daily neural function scores, number of rats under 2 scores [13] | Daily neural function scores, number of rats under 5 scores [13] | Daily neural function scores, number of rats under 4 scores [14] | Daily neural function scores, number of rats under 5 scores [14] | Daily neural function scores, number of rats under 3 scores [15] | Daily neural function scores, number of rats under 4 scores [15] | Daily neural function scores, number of rats under 5 scores [15] | Daily neural function scores, number of rats under 3 scores [16] | Daily neural function scores, number of rats under 4 scores [16] | Daily neural function scores, number of rats under 5 scores [16] | Daily neural function scores, number of rats under 3 scores [17] | Daily neural function scores, number of rats under 4 scores [17] | Daily neural function scores, number of rats under 5 scores [17] | Daily neural function scores, number of rats under 3 scores [18] | Daily neural function scores, number of rats under 4 scores [18] | Daily neural function scores, number of rats under 5 scores [18]
no death occurred: rats that died during successive 6-day treatment (1 μmol/kg 5Ak once per day after 4 hours from stroke onset, ten rats) | rats that died during successive 6-day treatment (1 μmol/kg 5Ak once per day after 24 hours from stroke onset, 8 rats)
2: Daily neural function scores, number of rats under 1 score [6] | Daily neural function scores, number of rats under 3 scores [7] | Daily neural function scores, number of rats under 2 scores [8] | Daily neural function scores, number of rats under 2 scores [9] | Daily neural function scores, number of rats under 1 score [11] | Daily neural function scores, number of rats under 3 scores [13] | Daily neural function scores, number of rats under 0 score [14] | Daily neural function scores, number of rats under 1 score [15] | Daily neural function scores, number of rats under 0 score [16]
7: Daily neural function scores, number of rats under 1 score [8] | Daily neural function scores, number of rats under 0 score [11]
6: Daily neural function scores, number of rats under 1 score [3] | Daily neural function scores, number of rats under 0 score [5] | Daily neural function scores, number of rats under 1 score [9] | Daily neural function scores, number of rats under 0 score [12]
1: Daily neural function scores, number of rats under 2 scores [1] | Daily neural function scores, number of rats under 3 scores [1] | Daily neural function scores, number of rats under 2 scores [2] | Daily neural function scores, number of rats under 2 scores [3] | Daily neural function scores, number of rats under 1 score [4] | Daily neural function scores, number of rats under 2 scores [4] | Daily neural function scores, number of rats under 3 scores [8] | Daily neural function scores, number of rats under 0 score [9] | Daily neural function scores, number of rats under 3 scores [9] | Daily neural function scores, number of rats under 2 scores [10] | Daily neural function scores, number of rats under 5 scores [10] | Daily neural function scores, number of rats under 0 score [13] | Daily neural function scores, number of rats under 4 scores [13] | Daily neural function scores, number of rats under 3 scores [14] | Daily neural function scores, number of rats under 2 scores [17] | Daily neural function scores, number of rats under 2 scores [18]
